US20250236616A1, “IMMUNOMODULATING AZALIDES” (Zoetis Services LLC, priority 2021, published 2025)
≈ marks a conversion by molar mass, not a printed value.

How the values were obtained:
[1] = system: P. multocida 46572; assay: In vivo mouse lung infection challenge model (murine efficacy), survival; set-up: species or system CD-1 female mice; details: 20 mg/kg subcutaneous; for % Survival: P. multocida 46572 intranasal challenge, harmonized relative to vehicle (−) and M9 (+) controls
Procedure: The challenge organism was P. multocida 46572. Target challenge concentration was 5×10^2 CFU/mouse. Isolated colonies from overnight growth (37° C. with 5% CO2) on trypticase soy agar (TSA II) blood plates were transferred to room temperature Brain Heart Infusion Broth (BHIB). The broth culture was incubated 3.5-4 hours to approximately mid-log phase of growth, as measured by forward light scatter at 600 nm (OD600, 0.200). The culture was centrifuged to collect the bacterial pellet. The pellet was re-suspended in BHIB and adjusted to provide an approximate concentration of 2.7 log 10 colony forming units (CFU) in 0.04 mL at the highest concentration. The challenge inoculum concentration was confirmed by serial dilutions of the inoculum for CFU enumeration. On Day −5, CD −1 female mice were received. Mice were given standard rodent diet and water ad libitum. On Day 0, bacterial inoculum (0.04 mL) was administered to each mouse (n=36) intranasally. Compounds of the invention were dosed at 20 mg/kg (0.1 mL) in a buffered (˜pH 5.4) propylene glycol, monothioglycerol and water solution by subcutaneous injection. Animals were observed from Days 1-10. The study was terminated on Day 10. In addition, some treatment groups were sampled at 6, 24, and 48 hours post bacterial challenge for RNA sequence analysis of lung tissue.
The murine efficacy model (P.multocida challenge) was optimized, and the treatment group size was powered to be able to observe statistically significant improvement of survival to expected ranges for immunomodulatory compounds. The experimental design was a randomized complete block design. Mice were individually identified and treatment groups comingled within a cage, with every treatment group equally represented across cages. Mortality was the primary variable. Mortality data was analyzed using a generalized mixed model with fixed effect of treatment and random effect of block. Survival time was also analyzed using the SAS PHREG (survival analysis) procedure to examine whether there were significant differences between treatment groups and the control group. Numerous compounds of the invention and M9 (positive control) were tested in this model at a dose of 20 mg/kg (Table 3). Typical percent survival for no treatment control is in the range of 0-20% based on study to study variation in challenge inoculum and rate of infection. […] Mouse survival for M9 was about 90-100%, further supporting its residual antibacterial properties against the bacterial strain.

[2] = system: IL-6; assay: Whole bovine blood assay, LPS-induced IL-6; assay type: cell-based; details: Bos taurus, fresh whole bovine blood, LPS stimulant; top drug concentration 250 μM
[3] = system: E. coli; assay: MIC, E. coli; assay type: cell-based; details: Escherichia coli
Description: (§1) Primary screening of the compounds of the invention included the evaluation of antibacterial activity of analogs through determination of microbial inhibition concentration (MIC) as per CLSI guidelines. The screening panel included the relevant BRD pathogens: 1) M. haemolytica (e.g., 12726, 46571 and 49023, all AHDRCC; and 33396 (ATCC)); and 2) P. multocida (e.g., 34135 and 46572 (both AHDRCC) and 43137 (ATCC)). In some instances, H. somni (A700025K) pathogens were also included in the screening panel. The AHDRCC strains originated from the Zoetis BRD/SRD surveillance program and refer to the Animal Health Development and Research Culture Collection. In addition, the screen assessed S. aureus (29213 ATCC) as a representative Gram-positive isolate, E.faecalis (19433 ATCC) as a commensal gram-positive gastrointestinal bacterium and E. coli (100, 3110 and 25922 (ATCC)) for the evaluation of efflux potential. The screening panel BRD pathogens were assessed in determining antibacterial activity of the Formula (1) compounds.
(§2) All relevant BRD pathogens were initially screened at a top concentration of 64 μg/mL of a Formula (1) compound in an eleven-point dilution series. […] If an Example was purified further, the MICs moved […] essentially two dilutions across all strains tested in the screening panel.
(§3) In-Vitro MIC Model Compounds were analyzed for antibacterial activity against a panel of animal health specific gram-positive and gram-negative clinical strains by diluting compounds in DMSO to an appropriate stock concentration to determine the Minimal Inhibitory Concentration (MIC) via a semi-automated broth micro-dilution method (CLSI reference method) with QC strains and anti-microbial agent(s). Specifically, bacteria were grown overnight on TSA w/5% sheep blood agar plates and diluted in saline buffer to a McFarland Standard 0.5, then further diluted in cation-ion adjusted Mueller Hinton Broth to a final concentration of approximately 5×10^5 CFU/mL. 100 μL of inoculated media was added to 96-well plate(s) with 3 μL of serially diluted compound in each row. Depending on strain (see CLSI reference method), bacteria were incubated 18-22 hours at 35-37° C. in ambient air, with 5% CO2 or anaerobically (up to 48 hours).

[4] = system: M. haemolytica; assay: MIC, M. haemolytica strains; assay type: cell-based; details: Mannheimia haemolytica
Description: as §1, §2, §3

[5] = M. haemolytica 46571, bovine efficacy challenge strain

Row | SMILES | % Survival [1] | IC50 [2] | MIC ([3]; E. coli 25922) | MIC ([3]; E. coli W3110) | MIC ([4]; M. haemolytica 12726) | MIC ([4]; M. haemolytica 33396) | MIC [4, 5] | Mouse survival ([1]; M9 positive control)
1 | CC[C@H]1OC(=O)[C@H](C)[C@@H](O)[C@H](C)[C@@H](O[C@@H]2O[C@H](C)C[C@H](N(C)S(=O)(=O)c3ccccc3)[C@H]2Oc2ccc(OC)cc2)[C@](C)(O)C[C@@H](C)CN[C@H](C)[C@@H](O)[C@]1(C)O [Example A-9, N-((2S,3R,4S,6R)-2-(((2R,3S,4R,5R,8R,10R,11R,12S,13S,14R)-2-ethyl-3,4,10,13-tetrahydroxy-3,5,8,10, 12, 14-hexamethyl-15-oxo-1-oxa-6-azacyclopentadecan-11-yl)oxy)-3-(4-methoxyphenoxy)-6-methyltetrahydro-2H-pyran-4-yl)-N-methylbenzenesulfonamide] | 41% | 21 µM | > 64 µg/mL | > 64 µg/mL | > 64 µg/mL | > 64 µg/mL | > 64 µg/mL | –
2 | CCCNC[C@]1(O)[C@H](C)O[C@@H](O[C@H]2[C@H](C)[C@@H](O[C@@H]3O[C@H](C)C[C@H](N(C)S(=O)(=O)c4ccc(C)cc4)[C@H]3O)[C@](C)(O)C[C@@H](C)CN[C@H](C)[C@@H](O)[C@](C)(O)[C@@H](CC)OC(=O)[C@@H]2C)C[C@@]1(C)OC [Example B-26, N-((2S,3R,4S,6R)-2-(((2R,3S,4R,5R,8R,10R,11R,12S,13S,14R)-2-ethyl-3,4,10-trihydroxy-13-(((2R,4R,5S,6S)-5-hydroxy-4-methoxy-4,6-dimethyl-5-((propylamino)methyl)tetrahydro-2H-pyran-2-yl)oxy)-3,5,8,10,12,14-hexamethyl-15-oxo-1-oxa-6-azacyclopentadecan-11-yl)oxy)-3-hydroxy-6-methyltetrahydro-2H-pyran-4-yl)-N,4-dimethylbenzenesulfonamide] | 37% | – | > 64 µg/mL | > 64 µg/mL | > 64 µg/mL | > 64 µg/mL | > 64 µg/mL | –
3 | CC[C@H]1OC(=O)[C@H](C)[C@@H](O[C@H]2C[C@@](C)(OC)[C@](O)(CN3CCCCC3)[C@H](C)O2)[C@H](C)[C@@H](O[C@@H]2O[C@H](C)C[C@H](N(C)S(=O)(=O)c3ccc(Cl)cc3)[C@H]2O)[C@](C)(O)C[C@@H](C)CN[C@H](C)[C@@H](O)[C@]1(C)O [Example C-4, 4-chloro-N-((2S,3R,4S,6R)-2-(((2R,3S,4R,5R,8R,10R,11R,12S,13S,14R)-2-ethyl-3,4,10-trihydroxy-13-(((2R,4R,5S,6S)-5-hydroxy-4-methoxy-4,6-dimethyl-5-(piperidin-1-ylmethyl)tetrahydro-2H-pyran-2-yl)oxy)-3,5,8, 10, 12, 14-hexamethyl-15-oxo-1-oxa-6-azacyclopentadecan-11-yl)oxy)-3-hydroxy-6-methyltetrahydro-2H-pyran-4-yl)-N-methylbenzenesulfonamide] | 76% | – | > 128 µg/mL | > 128 µg/mL | > 128 µg/mL | > 128 µg/mL | > 128 µg/mL | –
4 | CCCNC[C@]1(O)[C@H](C)O[C@@H](O[C@H]2[C@H](C)[C@@H](O[C@@H]3O[C@H](C)C[C@H](N(C)S(=O)(=O)Nc4ccc(C(F)(F)F)cc4)[C@H]3O)[C@](C)(O)C[C@@H](C)CN[C@H](C)[C@@H](O)[C@](C)(O)[C@@H](CC)OC(=O)[C@@H]2C)C[C@@]1(C)OC [Example B-50, (2R,3S,4R,5R,8R,10R,11R,12S,13S, 14R)-2-ethyl-3,4,10-trihydroxy-13-[(2R,4R,5S,6S)-5-hydroxy-4-methoxy-4,6-dimethyl-5-(propylaminomethyl)oxan-2-yl]oxy-11-[(2S,3R,4S,6R)-3-hydroxy-6-methyl-4-[methyl-[[4-(trifluoromethyl)phenyl]sulfamoyl]amino]oxan-2-yl]oxy-3,5,8, 10, 12, 14-hexamethyl-15-oxo-1-oxa-6-azacyclopentadecane] | 88% | 49 µM | > 64 µg/mL | > 64 µg/mL | > 64 µg/mL | > 64 µg/mL | > 64 µg/mL | –
5 | CC[C@H]1OC(=O)[C@H](C)[C@@H](O[C@H]2C[C@@](C)(OC)[C@](O)(CN3CCCCC3)[C@H](C)O2)[C@H](C)[C@@H](O[C@@H]2O[C@H](C)C[C@H](N(C)S(=O)(=O)Nc3ccc(C(F)(F)F)cc3)[C@H]2O)[C@](C)(O)C[C@@H](C)CN[C@H](C)[C@@H](O)[C@]1(C)O [Example C-11, (2R,3S,4R,5R,8R,10R,11R,12S, 13S, 14R)-2-ethyl-3,4, 10-trihydroxy-13-[(2R,4R,5S,6S)-5-hydroxy-4-methoxy-4,6-dimethyl-5-(piperidin-1-ylmethyl)oxan-2-yl]oxy-11-[(2S,3R,4S,6R)-3-hydroxy-6-methyl-4-[methyl-[[4-(trifluoromethyl)phenyl]sulfamoyl]amino]oxan-2-yl]oxy-3,5,8, 10, 12, 14-hexamethyl-15-oxo-1-oxa-6-azacyclopentadecane] | 56% | 13 µM | > 64 µg/mL | > 64 µg/mL | > 64 µg/mL | > 64 µg/mL | > 64 µg/mL | –
6 | CCCNC[C@]1(O)[C@H](C)O[C@@H](O[C@H]2[C@H](C)[C@@H](O[C@@H]3O[C@H](C)C[C@H](NC)[C@H]3O)[C@](C)(O)C[C@@H](C)CN[C@H](C)[C@@H](O)[C@](C)(O)[C@@H](CC)OC(=O)[C@@H]2C)C[C@@]1(C)OC [Example M9, (2R,3S,4R,5R,8R,10R,11R,12S,13S,14R)-2-ethyl-3,4, 10-trihydroxy-13-(((2R,4R,5S,6S)-5-hydroxy-4-methoxy-4,6-dimethyl-5-((propylamino)methyl)-tetrahydro-2H-pyran-2-yl)oxy)-11-(((2S,3R,4S,6R)-3-hydroxy-6-methyl-4-(methylamino)tetrahydro-2H-pyran-2-yl)oxy)-3,5,8,10,12,14-hexamethyl-1-oxa-6-azacyclopentadecan-15-one] | – | – | > 64 µg/mL | 64 µg/mL (≈ 80.8 µM) | 22 µg/mL (≈ 27.8 µM) | – | – | 90-100%
